pIC50, pKi: −log10 of the molar value. Where two headings read alike, the source gives them in different places.
Assays:
CDK2/Cyclin A = CDK2/Cyclin A (Homo sapiens, UniProt P24941); assay: CDK2/Cyclin A assay ([32P]ATP, Rb fragment); type: biochemical
CDK4/Cyclin D3 complex = CDK4/Cyclin D3 complex (Homo sapiens, UniProt P11802); assay: CDK4/Cyclin D assay ([32P]ATP, Rb fragment)
[1] = biological target: unphosphorylated VEGF-R2Δ50 (FLVK) (Homo sapiens, UniProt P35968, DEL940-989/E990V); assay: VEGF-R2 coupled spectrophotometric assay, unphosphorylated VEGF-R2Δ50 (FLVK); conditions: FLVK Ki, Table 1
unphosphorylated VEGF-R2Δ50 (FLVK), sequence (P35968 with tags, fused parts or gaps DEL940-989/E990V limits assumed): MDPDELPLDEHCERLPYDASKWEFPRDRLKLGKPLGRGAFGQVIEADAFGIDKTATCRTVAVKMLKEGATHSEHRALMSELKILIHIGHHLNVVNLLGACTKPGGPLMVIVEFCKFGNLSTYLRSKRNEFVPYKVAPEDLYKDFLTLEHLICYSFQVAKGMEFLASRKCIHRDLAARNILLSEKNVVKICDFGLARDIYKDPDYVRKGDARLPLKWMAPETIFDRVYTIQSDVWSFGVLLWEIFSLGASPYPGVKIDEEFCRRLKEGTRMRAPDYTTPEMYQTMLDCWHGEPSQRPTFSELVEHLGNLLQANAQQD

[2] = system: human umbilical vein endothelial cells (HUVEC); assay: HUVEC proliferation assay (VEGF-stimulated, MTT); type: cell-based; conditions: Homo sapiens, HUVEC; read-out: HUVEC IC50
human CHK1 (FL-CHK1) = biological target: T1, human CHK1 (FL-CHK1) (Homo sapiens, UniProt O14757); assay: CHK1 assay (coupled spectrophotometric, Syntide-2); type: biochemical; conditions: for pKi: read-out: CHK-1 Ki
T1 construct: C-terminally His-tagged full-length human CHK1 (FL-CHK1); made in house; host or cells: baculovirus/insect cell system
T1 sequence (O14757 1-476): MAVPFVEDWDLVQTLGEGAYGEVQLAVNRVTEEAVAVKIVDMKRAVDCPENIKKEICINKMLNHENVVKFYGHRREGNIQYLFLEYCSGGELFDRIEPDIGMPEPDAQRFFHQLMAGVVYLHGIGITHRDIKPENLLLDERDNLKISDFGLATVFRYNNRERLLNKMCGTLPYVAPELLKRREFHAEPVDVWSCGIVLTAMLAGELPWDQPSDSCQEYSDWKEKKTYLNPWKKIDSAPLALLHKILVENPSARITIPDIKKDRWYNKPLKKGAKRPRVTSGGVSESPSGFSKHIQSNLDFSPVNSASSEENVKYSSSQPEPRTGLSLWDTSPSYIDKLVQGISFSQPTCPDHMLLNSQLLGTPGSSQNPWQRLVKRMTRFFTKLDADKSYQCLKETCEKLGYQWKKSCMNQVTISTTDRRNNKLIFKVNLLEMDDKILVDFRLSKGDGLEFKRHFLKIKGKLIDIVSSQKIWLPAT
From the text: CHK1 Construct for Assay: C-terminally His-tagged full-length human CHK1 (FL-CHK1) was expressed using the baculovirus/insect cell system. […] The protein was purified by conventional chromatographic techniques.
The production of ADP from ATP that accompanies phosphoryl transfer to the synthetic substrate peptide Syntide-2 ([…]) was coupled to oxidation of NADH using phosphoenolpyruvate (PEP) through the actions of pyruvate kinase (PK) and lactic dehydrogenase (LDH). The oxidation of NADH was monitored by following the decrease of absorbance at 340 nm (ε340=6.22 cm^−1 mM^−1) using a HP8452 spectrophotometer. […] Assays were initiated with 10 nM of FL-CHK1. Ki values were determined by measuring initial enzyme activity in the presence of varying concentrations of test compounds. The data were analyzed using Enzyme Kinetic and Kaleidagraph software.

human FGF-R1 = human FGF-R1 (Homo sapiens, UniProt P11362, C488A/C584S/L457V); assay: FGF-R spectrophotometric assay
human FGF-R1, sequence (P11362 456-766 L457V/C488A/C584S): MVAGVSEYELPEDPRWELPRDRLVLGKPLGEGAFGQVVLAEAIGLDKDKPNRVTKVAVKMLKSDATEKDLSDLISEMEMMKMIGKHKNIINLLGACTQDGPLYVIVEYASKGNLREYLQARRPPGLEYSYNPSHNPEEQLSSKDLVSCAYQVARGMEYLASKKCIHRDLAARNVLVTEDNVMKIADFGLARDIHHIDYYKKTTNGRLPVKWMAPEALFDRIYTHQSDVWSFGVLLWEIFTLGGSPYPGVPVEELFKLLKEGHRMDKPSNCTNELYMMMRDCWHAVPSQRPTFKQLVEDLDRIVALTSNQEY

CDK4/Cyclin D3 complex, sequence (P11802 whole entry, the tested form may be a part): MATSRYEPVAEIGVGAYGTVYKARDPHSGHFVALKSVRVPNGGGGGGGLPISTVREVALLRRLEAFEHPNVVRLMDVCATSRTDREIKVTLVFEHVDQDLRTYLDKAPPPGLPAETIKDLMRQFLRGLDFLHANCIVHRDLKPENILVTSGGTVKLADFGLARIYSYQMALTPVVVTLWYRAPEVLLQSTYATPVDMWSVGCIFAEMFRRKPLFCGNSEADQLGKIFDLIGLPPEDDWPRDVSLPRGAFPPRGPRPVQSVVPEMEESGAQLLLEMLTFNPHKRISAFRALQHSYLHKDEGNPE
CDK4/Cyclin D3 complex, sequence (P30281 whole entry partner, the tested form may be a part): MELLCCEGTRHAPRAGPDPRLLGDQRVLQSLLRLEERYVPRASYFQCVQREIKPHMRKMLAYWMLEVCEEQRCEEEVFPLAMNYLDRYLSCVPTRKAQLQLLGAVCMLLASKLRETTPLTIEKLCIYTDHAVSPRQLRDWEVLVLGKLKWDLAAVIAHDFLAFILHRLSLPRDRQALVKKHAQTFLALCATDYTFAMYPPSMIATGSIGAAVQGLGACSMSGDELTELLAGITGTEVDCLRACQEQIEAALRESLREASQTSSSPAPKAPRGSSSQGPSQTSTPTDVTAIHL

## COCCc1cc(O)ccc1-c1ccc2c(-c3nc4ccccc4[nH]3)n[nH]c2c1 [Example 24(h), 3-1H-Benzoimidazol-2-yl-6-(2-(2-methoxyethyl)-4-hydroxyphenyl)-1H-indazole]
CDK2/Cyclin A; Table 2
  pKi: 7.27
CDK4/Cyclin D3 complex
  pKi: 7.28

## COc1cc(O)ccc1-c1ccc2c(-c3nc4ccc(C(=O)NCCN5CCOCC5)cc4[nH]3)n[nH]c2c1 [Example 25(b), 3-[6-(2-Morpholin-4-yl-ethylcarbamoyl)-1H-benzoimidazol-2-yl]-6-(2-methoxy-4-hydroxyphenyl)-1H-indazole]
CDK4/Cyclin D3 complex
  pKi: 7.32

## COc1cc(O)ccc1-c1ccc2c(-c3nc4ccc(S(N)(=O)=O)cc4[nH]3)n[nH]c2c1 [Example 25(i), 3-(5-Aminosulfonyl-1H-benzoimidazol-2-yl)-6-(2-methoxy-4-hydroxy-phenyl)-1H-indazole]
CDK2/Cyclin A; Table 2
  pKi: 7.68
CDK4/Cyclin D3 complex
  pKi: 7.70

## Cc1cc(O)cc(C)c1-c1ccc2c(-c3nc4ccccc4[nH]3)n[nH]c2c1 [Example 24(j), 3-1H-Benzoimidazol-2-yl-6-(2,6-dimethyl-4-hydroxyphenyl)-1H-indazole]
CDK2/Cyclin A; Table 2
  pKi: 5.68
CDK4/Cyclin D3 complex
  pKi: 6.49

## CNC(=O)c1cccc2[nH]c(-c3n[nH]c4cc(-c5ccc(O)cc5OC)ccc34)nc12 [Example 25(j), 3-(4-Methylcarbamoyl-1H-benzoinidazol-2-yl)-6-(2-methoxy-4-hydroxy-phenyl)-1H-indazole]
CDK2/Cyclin A; Table 2
  pKi: 7.10
CDK4/Cyclin D3 complex
  pKi: 7.80

## Oc1cccc(-c2ccc3c(-c4nc5ccccc5[nH]4)n[nH]c3c2)c1 [Example 24(o), 3-1H-Benzoimidazol-2-yl-6-(3-hydroxyphenyl)-1H-indazole]
CDK2/Cyclin A; Table 2
  pKi: 7.54
CDK4/Cyclin D3 complex
  pKi: 6.70

## COc1cc(O)ccc1-c1ccc2c(-c3nc4cnccc4[nH]3)n[nH]c2c1 [Example 25(a), 3-(3H-Iniidazo[4,5-c]pyridin-2-yl)-6-(4-hydroxy-2-methoxyphenyl)-1H-indazole]
CDK2/Cyclin A; Table 2
  pKi: 7.10
CDK4/Cyclin D3 complex
  pKi: 7.68

## COc1cc(O)ccc1-c1ccc2c(-c3nc4cc(N(C)C)ccc4[nH]3)n[nH]c2c1 [Example 25(h), 3-(5-Dimethylamino-1H-benzoimidazol-2-yl)-6-(2-methoxy-4-hydroxy-phenyl)-1H-indazole]
CDK2/Cyclin A; Table 2
  pKi: 6.77
CDK4/Cyclin D3 complex
  pKi: 7.62

## COc1cc(-c2ccc3c(-c4ccc5ccccc5c4)n[nH]c3c2)ccc1O [Example 2(a), 3-(Naphthalen-2-yl)-6-(3-methoxy-4-hydroxy-phenyl)-1H-indazole]
CDK2/Cyclin A; Table 1
  pKi: 6.21
CDK4/Cyclin D3 complex
  pKi: 5.80
[1]
  pKi: 7.40
[2]
  pIC50: < 6.00
Human CHK1 (FL-CHK1); read-out: CHK-1 % inhibition, Table 1, @20 μM
  inhibition at 20 µM: 61%

## C=C(c1ccccc1)c1ccc2c(/C=C/c3ccccc3)n[nH]c2c1 [Example 10, 6-(1-Phenyl-vinyl)-3-styryl-1H-indazole]
[1]
  pKi: 8.05
Human CHK1 (FL-CHK1); Table 1
  pKi: 5.04

## Fc1cccc(/C=C/c2n[nH]c3cc(-c4ccncc4)ccc23)c1F [29(l), 6-Pyrid-4-yl-3-E-[2-(2,3-difluorophenyl)ethenyl]-1H-indazole]
CDK2/Cyclin A; Table 3
  pKi: 5.51
CDK4/Cyclin D3 complex
  pKi: 5.30

## COc1cc(O)ccc1-c1ccc2c(-c3nc4c(N5CCN(C)CC5)cccc4[nH]3)n[nH]c2c1 [Example 25(d), 3-[4-(4-Methylpiperazin-1-yl)-1H-benzoinidazol-2-yl]-6-(2-methoxy-4-hydroxyphenyl)-1H-indazole]
CDK2/Cyclin A; Table 2
  pKi: 6.80
CDK4/Cyclin D3 complex
  pKi: 7.01

## COc1cc(O)ccc1-c1ccc2c(-c3nc4c(SCCO)cccc4[nH]3)n[nH]c2c1 [Example 25(f), 3-[4-(2-Hydroxyethylsulfanyl)-1H-benzoimidazol-2-yl]-6-(2-methoxy-4-hydroxyphenyl)-1H-indazole]
CDK2/Cyclin A; Table 2
  pKi: 6.41
CDK4/Cyclin D3 complex
  pKi: 6.00

## Oc1ccc(-c2ccc3c(/C=C/c4ccccc4)n[nH]c3c2)cc1OCc1ccccc1 [Example 1(b), 3-(E-Styryl)-6-(3-benzyloxy-4-hydroxy-phenyl)-1H-indazole]
CDK2/Cyclin A; Table 1
  pKi: 5.40
CDK4/Cyclin D3 complex
  pKi: 5.89
[1]
  pKi: 8.66
[2]
  pIC50: < 6.00
Human CHK1 (FL-CHK1); Table 1
  pKi: 5.85

## CCc1cc(O)ccc1-c1ccc2c(-c3nc4ccccc4[nH]3)n[nH]c2c1 [Example 24(e), 3-1H-Benzoimidazol-2-yl-6-(2-ethyl-4-hydroxyphenyl)-1H-indazole]
CDK2/Cyclin A; Table 2
  pKi: 7.52
CDK4/Cyclin D3 complex
  pKi: 8.36

## Cc1cc(O)ccc1-c1ccc2c(-c3nc4ccccc4[nH]3)n[nH]c2c1 [Example 24(b), 4-[3-(1-H-Benzoimidazol-2-yl)-1-H-indazol-6-yl]-3-methyl-phenol]
CDK4/Cyclin D3 complex
  pKi: 8.49

## COc1cc(-c2ccc3c(-c4nc5ccccc5[nH]4)n[nH]c3c2)c(CO)cc1O [Example 24(n), 3-1H-Benzoimidazol-2-yl-6-(2-(hydroxymethyl)-5-methoxy-4-hydroxy-phenyl)-1H-indazole]
CDK2/Cyclin A; Table 2
  pKi: 7.46
CDK4/Cyclin D3 complex
  pKi: 7.72

## Clc1ccc(/C=C/c2n[nH]c3cc(-c4ccncc4)ccc23)cc1 [Example 29(c), 6-Pyrid-4-yl-3-E-[2-(4-chlorophenyl)ethenyl]-1H-indazole]
CDK2/Cyclin A; Table 3
  pKi: 5.66
CDK4/Cyclin D3 complex
  pKi: 5.70

## COc1cc(O)ccc1-c1ccc2c(-c3ncc[nH]3)n[nH]c2c1 [Example 25(e), 3-Imdazol-2-yl-6-(2-methoxy-4-hydroxyphenyl)-1H-indazole]
CDK4/Cyclin D3 complex
  pKi: 6.74

## COc1cc(-c2ccc3c(-c4cc(OC)c(OC)c(OC)c4)n[nH]c3c2)ccc1O [Example 2(c), 3-(3,4,5-Trimethoxyphenyl)-6-(3-methoxy-4-hydroxy-phenyl)-1H-indazole]
CDK2/Cyclin A; Table 1, μM
  Ki: 50 µM
CDK4/Cyclin D3 complex
  pKi: 4.59
[1]
  pKi: 5.59

## C(=C\c1n[nH]c2cc(-c3ccncc3)ccc12)/c1ccc2ccccc2c1 [Example 29(k), 6-Pyrid-4-yl-3-E-[2-(naphthalen-2-yl)ethenyl]-1H-indazole]
Human CHK1 (FL-CHK1); Table 3
  pKi: 5.89

## Cc1cccc(C(=O)Nc2cccc(Oc3ccc4c(/C=C/c5ccccc5)n[nH]c4c3)c2)c1 [Example 5(b), 3-Methyl-N-[3-(3-styryl-1h-indazol-6-yloxy)-phenyl]-benzamide]
Human FGF-R1
  pKi: 7.85

## COc1c(O)cccc1-c1ccc2c(-c3nc4ccccc4[nH]3)n[nH]c2c1 [Example 24(p), 3-1H-Benzoinidazol-2-yl-6-(2-methoxy-3-hydroxyphenyl)-1H-indazole]
CDK2/Cyclin A; Table 2
  pKi: 7.05
CDK4/Cyclin D3 complex
  pKi: 7.04

## Oc1ccc(-c2ccc3c(-c4nc5ccccc5[nH]4)n[nH]c3c2)c(O)c1 [Example 24(f), 3-1H-Benzoimidazol-2-yl-6-(2,4-dihydroxyphenyl)-1H-indazole]
CDK2/Cyclin A; Table 2
  pKi: 8.14
CDK4/Cyclin D3 complex
  pKi: 8.13

## COc1cc(O)ccc1-c1ccc2c(-c3nc4ccc(N5CCN(C)CC5)cc4[nH]3)n[nH]c2c1 [Example 25(c), 3-[6-(4-Methylpiperazin-1-yl)-1H-benzoimidazol-2-yl]-6-(2-methoxy-4-hydroxyphenyl)-1H-indazole]
CDK4/Cyclin D3 complex
  pKi: 7.81

## C(=C\c1n[nH]c2cc(-c3cccc4[nH]ccc34)ccc12)/c1ccccc1 [Example 27(g), 6-Indol-4-yl-3-E-styryl-1H-indazole]
Human CHK1 (FL-CHK1); Table 3
  pKi: 6.07

## Nc1cccc(Oc2ccc3c(/C=C/c4ccccc4)n[nH]c3c2)c1 [Example 7, 3-(Styryl-1H-indazol-6-yloxy)-phenylamine]
[1]
  pKi: 7.74
Human CHK1 (FL-CHK1); Table 1
  pKi: 5.89

## C(=C\c1n[nH]c2cc(-c3ccncc3)ccc12)/c1nc2ccccc2[nH]1 [Example 29(q), 6-Pyrid-4-yl-3-E-[2-(4-benzimidazol-2-yl)ethenyl]-1H-indazole]
Human CHK1 (FL-CHK1); Table 3
  pKi: 4.96

## C(=C\c1n[nH]c2cc(-c3ccncc3)ccc12)/c1ccc[nH]1 [Example 29(t), 6-Pyrid-4-yl-3-E-[2-(1H-pyrrol-2-yl)ethenyl]-1H-indazole]
Human CHK1 (FL-CHK1); Table 3
  pKi: 7.14

## Brc1cccc(Oc2ccc3c(/C=C/c4ccccc4)n[nH]c3c2)c1 [Example 8(d), 6-(3-Bromo-phenoxy)-3-styryl-1H-indazole]
[1]
  pKi: 7.96
Human CHK1 (FL-CHK1); Table 1
  pKi: 4.09

## O=C(NOCc1ccccc1)c1ccc2c(-c3nc4ccccc4[nH]3)n[nH]c2c1 [Example 53(f), 3-(1H-Benzoimidazol-2-yl)-N-benzyloxy-1H-indazole-6-carboxamide]
Human CHK1 (FL-CHK1); Table 3
  pKi: 5.14

## CNC(=O)c1ccc2[nH]c(-c3n[nH]c4cc(-c5ccc(O)cc5OC)ccc34)nc2c1 [Example 25(g), 3-(5-Methylcarbamoyl-1H-benzoimidazol-2-yl)-6-(2-methoxy-4-hydroxyphenyl)-1H-indazole]
CDK2/Cyclin A; Table 2
  pKi: 7.10
CDK4/Cyclin D3 complex
  pKi: 7.68

— US6534524B1, “Indazole compounds and pharmaceutical compositions for inhibiting protein kinases, and methods for their use” (Agouron Pharmaceuticals, Inc., priority 1999, dated 2003)
